Test results as given in PubChem BioAssay AID1919001 (Molecular Pharmacology Branch, DTP, NCI, 2023).

System: 699152-130-R-J1-PDC complex spheroid growth
Test: Anticancer human tumor 699152-130-R-J1-PDC patient-derived pancreatic carcinoma cell line growth inhibition [AhR]
Conditions: for IC50: curve of first compound; for viability, T/C: stronger effect = lower value; active = viability on the fitted dose curve at most 10% of control; inactive = the rest
How it was run: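 Spheroids combined tumor cells with HUVEC endothelial cells and human MSCs as stroma. AhR antagonists were paired with standard or investigational drugs, each dosed in half-log steps down from near clinical Cmax, or from 10 microM where Cmax was unknown.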

[1] = second compound 0.1 µM, first compound 0.0316 µM
[2] = second compound 0.1 µM, first compound 0.1 µM
[3] = second compound 0.316 µM, first compound 0.0316 µM
[4] = second compound 0.316 µM, first compound 0.1 µM
[5] = second compound 1 µM, first compound 0.0316 µM
[6] = second compound 1 µM, first compound 0.1 µM
[7] = second compound 3.16 µM, first compound 0.0316 µM
[8] = second compound 3.16 µM, first compound 0.1 µM
[9] = second compound 10 µM, first compound 0.0316 µM
[10] = second compound 10 µM, first compound 0.1 µM
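Also: compound exposure lasted 7 days after spheroids had grown for 3 days.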

Cn1ncnc1C1c2n[nH]c(=O)c3cc(F)cc(c23)NC1c1ccc(F)cc1 (stereo not given) + Cc1cncc(-c2nc(NCCc3c[nH]c4ccccc34)c3ncn(C(C)C)c3n2)c1
< 0.000316 µM: IC50 (second compound 10 µM)
inactive: viability, T/C (second compound 0.1 µM, first compound 0.000316 µM) 95.2% | viability, T/C (second compound 0.1 µM, first compound 0.001 µM) 117% | viability, T/C (second compound 0.1 µM, first compound 0.00316 µM) 109% | viability, T/C (second compound 0.1 µM, first compound 0.01 µM) 115% | viability, T/C [1] 105% | viability, T/C [2] 104% | viability, T/C (second compound 0.316 µM, first compound 0.000316 µM) 113% | viability, T/C (second compound 0.316 µM, first compound 0.001 µM) 115% | viability, T/C (second compound 0.316 µM, first compound 0.00316 µM) 125% | viability, T/C (second compound 0.316 µM, first compound 0.01 µM) 115% | viability, T/C [3] 102% | viability, T/C [4] 104% | viability, T/C (second compound 1 µM, first compound 0.000316 µM) 125% | viability, T/C (second compound 1 µM, first compound 0.001 µM) 117% | viability, T/C (second compound 1 µM, first compound 0.00316 µM) 119% | viability, T/C (second compound 1 µM, first compound 0.01 µM) 116% | viability, T/C [5] 111% | viability, T/C [6] 124% | viability, T/C (second compound 3.16 µM, first compound 0.000316 µM) 128% | viability, T/C (second compound 3.16 µM, first compound 0.001 µM) 114% | viability, T/C (second compound 3.16 µM, first compound 0.00316 µM) 118% | viability, T/C (second compound 3.16 µM, first compound 0.01 µM) 116% | viability, T/C [7] 114% | viability, T/C [8] 99.1% | viability, T/C (second compound 10 µM, first compound 0.000316 µM) 26.1% | viability, T/C (second compound 10 µM, first compound 0.001 µM) 28.6% | viability, T/C (second compound 10 µM, first compound 0.00316 µM) 34.2% | viability, T/C (second compound 10 µM, first compound 0.01 µM) 26.6% | viability, T/C [9] 28% | viability, T/C [10] 22.5%
> 0.1 µM: IC50 (second compound 0.1 µM) | IC50 (second compound 0.316 µM) | IC50 (second compound 1 µM) | IC50 (second compound 3.16 µM)

NS(=O)(=O)OCC1CC(n2ccc3c(NC4CCc5ccccc54)ncnc32)CC1O (stereo not given) + Cc1cncc(-c2nc(NCCc3c[nH]c4ccccc34)c3ncn(C(C)C)c3n2)c1
0.898 µM: IC50 (second compound 0.1 µM)
0.837 µM: IC50 (second compound 0.316 µM)
active: viability, T/C (second compound 3.16 µM, first compound 3.16 µM) 8.14% | viability, T/C (second compound 3.16 µM, first compound 10 µM) 9.66% | viability, T/C (second compound 10 µM, first compound 1 µM) 5.16% | viability, T/C (second compound 10 µM, first compound 3.16 µM) 4.2% | viability, T/C (second compound 10 µM, first compound 10 µM) 3.67%
0.889 µM: IC50 (second compound 1 µM)
< 0.0316 µM: IC50 (second compound 10 µM)
0.512 µM: IC50 (second compound 3.16 µM)
inactive: viability, T/C [1] 112% | viability, T/C [2] 128% | viability, T/C (second compound 0.1 µM, first compound 0.316 µM) 145% | viability, T/C (second compound 0.1 µM, first compound 1 µM) 41.8% | viability, T/C (second compound 0.1 µM, first compound 3.16 µM) 21.5% | viability, T/C (second compound 0.1 µM, first compound 10 µM) 20.9% | viability, T/C [3] 114% | viability, T/C [4] 132% | viability, T/C (second compound 0.316 µM, first compound 0.316 µM) 147% | viability, T/C (second compound 0.316 µM, first compound 1 µM) 35.2% | viability, T/C (second compound 0.316 µM, first compound 3.16 µM) 18.9% | viability, T/C (second compound 0.316 µM, first compound 10 µM) 21.4% | viability, T/C [5] 131% | viability, T/C [6] 156% | viability, T/C (second compound 1 µM, first compound 0.316 µM) 149% | viability, T/C (second compound 1 µM, first compound 1 µM) 39.1% | viability, T/C (second compound 1 µM, first compound 3.16 µM) 18.8% | viability, T/C (second compound 1 µM, first compound 10 µM) 18.3% | viability, T/C [7] 104% | viability, T/C [8] 103% | viability, T/C (second compound 3.16 µM, first compound 0.316 µM) 74.2% | viability, T/C (second compound 3.16 µM, first compound 1 µM) 16.5% | viability, T/C [9] 23.7% | viability, T/C [10] 17.8% | viability, T/C (second compound 10 µM, first compound 0.316 µM) 10.1%
